# Patent US8759363B2, “Quinazoline-based T cell proliferation inhibitors” (Yissum Research Development Company of the Hebrew …, priority 2010, dated 2014)
# Test system: not given
# Test: not given
# Details: not given
row,Structure (SMILES),melting point [°C]
1,"COc1cc(-c2nc(Nc3ccc(OC(F)(F)F)cc3)c3ccccc3n2)cc(OC)c1OC [Compound 7, N-(4-(trifluoromethoxy)phenyl)-2-(3,4,5-trimethoxyphenyl) quinazolin-4-amine]",> 250
2,"COc1cc(-c2nc(Nc3ccc4[nH]ncc4c3)c3ccccc3n2)cc(OC)c1OC [Compound 16, N-(1H-indazol-5-yl)-2-(3,4,5-trimethoxyphenyl)quinazolin-4-amine]",> 250
3,"COc1cc(-c2nc(NCc3ccc(N)cc3)c3ccccc3n2)cc(OC)c1OC [Compound 11, N-(4-aminobenzyl)-2-(3,4,5-trimethoxyphenyl)quinazolin-4-amine]",> 250

# More lines, now with the values ahead:
row,melting point [°C],Structure (SMILES)
1,> 250,"Cc1ccc(Nc2nc(-c3cc(O)c(O)c(O)c3)nc3ccccc23)cc1 [Compound 21, 5-(4-(p-tolylamino)quinazolin-2-yl)benzene-1,2,3-triol]"
2,> 250,"Oc1cc(-c2nc(Nc3ccccc3)c3ccccc3n2)cc(O)c1O [Compound 20, 5-(4-(phenylamino)quinazolin-2-yl)benzene-1,2,3-triol]"

# Test system: PBMC
# Test: PBMC proliferation, BrdU incorporation
# Format: cell-based, human
# Details: Homo sapiens; ConA-stimulated PBMC, BrdU uptake; nM ± SD; read-out: IC50 PBMC proliferation inhibition
# Procedure: Blood samples were taken from healthy donors and loaded on a Ficoll density gradient to purify the PBMC population. T cells were purified by human anti-CD3 using an autoMACS instrument (Miltenyi Biotec, Bergisch-Gladbach, Germany), according to the manufacturer's instructions. The identity of T cells was confirmed by flow cytometry, as they stained positive for CD3. Cells were stimulated with ConA (10 μg/ml), ODN2006 (0.5 μg/ml; Enzo Life Sciences), or LPS (50 μg/ml; Sigma-Aldrich, Steinheim, Germany), for 72 h in the presence of the inhibitor, and their proliferation was measured in the BrdU incorporation assay as will be later described.
# (§1) Cells were depleted of fetal calf serum (FCS) for 12 hours. They were then stimulated to proliferate by addition of ConA (10 μg/ml) for PBMC from healthy individuals and for Jurkat cells, FCS (10%) for HEK293 and A375 cells, PDGF (30 ng/ml) for NIH 3T3 cells, and EGF (30 ng/ml) for MDA-MB-231, Cells (1×10^5) were cultured in 96-well plates for 3 days in the presence or absence of inhibitors at the concentrations specified in the text. Each condition was tested in duplicate wells.
# (§2) Proliferation was assessed by BrdU incorporation using a colorimetric ELISA kit (Roche, Germany). Subsequent to labeling with 10 μM BrdU, DNA was denatured and the cells were incubated with anti-BrdU-POD, prior to the addition of colorimetric substrate (TMB). The reaction product was quantified by measuring absorbance at 450 nm in an ELISA plate reader (ELx800 BIO-TEK Instruments Inc.).
# (§3) Since we were not prejudiced towards any specific protein kinase, we used a biological assay for T cell proliferation. We tested our libraries for inhibition of proliferation of PBMC and Jurkat cells (Table 3). Cell proliferation was measured by BrdU uptake. […] PBMC cells were stimulated by a non-specific T cell mitogen, Concanavalin A (ConA). All of the compounds that were tested inhibited proliferation at micromolar or sub-micromolar concentrations.
row,Structure (SMILES),IC50 [nM]
1,"Cc1ccc(Nc2nc(-c3cc(O)c(O)c(O)c3)nc3ccccc23)cc1 [Compound 21, 5-(4-(p-tolylamino)quinazolin-2-yl)benzene-1,2,3-triol]",850 ± 0.21
2,"COc1cc(-c2nc(Nc3ccc(OC(F)(F)F)cc3)c3ccccc3n2)cc(OC)c1OC [Compound 7, N-(4-(trifluoromethoxy)phenyl)-2-(3,4,5-trimethoxyphenyl) quinazolin-4-amine]",400
3,"COc1cc(-c2nc(Nc3ccc4[nH]ncc4c3)c3ccccc3n2)cc(OC)c1OC [Compound 16, N-(1H-indazol-5-yl)-2-(3,4,5-trimethoxyphenyl)quinazolin-4-amine]",600 ± 0.28
4,"Oc1cc(-c2nc(Nc3ccccc3)c3ccccc3n2)cc(O)c1O [Compound 20, 5-(4-(phenylamino)quinazolin-2-yl)benzene-1,2,3-triol]",650 ± 0.49
5,"COc1cc(-c2nc(NCc3ccc(N)cc3)c3ccccc3n2)cc(OC)c1OC [Compound 11, N-(4-aminobenzyl)-2-(3,4,5-trimethoxyphenyl)quinazolin-4-amine]",380 ± 0.04

# Same assay, conditions: relative to compound 2
row,Structure (SMILES),fold increase in the IC50 of PBMC proliferation compared with compound 2 [fold]
1,"COc1cc(-c2nc(Nc3ccc(OC(F)(F)F)cc3)c3ccccc3n2)cc(OC)c1OC [Compound 7, N-(4-(trifluoromethoxy)phenyl)-2-(3,4,5-trimethoxyphenyl) quinazolin-4-amine]",5

# Test system: OT2 (resting) cells
# Test: MLR with resting control cells, resting OT2 cells
# Format: cell-based, mouse
# Details: 0.5 μM, 72 h MLR with IL-7; no inhibitor 1025
# Description: (§4) The aim of this test was to determine whether 2 affects only the proliferating cells or there is a general mechanism affecting all cell numbers. For this purpose we mixed 3 cell types: […]: BALB/c, 2C and OT1; […]: CB6F1, TEA and OT2. The OT1 and OT2 are splenocytes that were isolated from OT1 and OT2 mice (Jackson Laboratories, Bar Harbor, Me.),
# (§5) Thus, the ability to monitor the fate of proliferation and resting cells by FACS was enabled due to the use of the MLR described above for CD4+ and CD8+ and the addition of OT2 and OT1 splenocytes, respectively.
# (§6) Proliferating cells often secrete cytokines that induce survival of neighbouring cells; since the proliferation was expected to be inhibited we added 50 ng/ml of IL-7. This concentration is sufficient to keep the cells alive, but not to induce proliferation.
# (§7) The number of TEA and OT2 cells that were treated with 0.5 μM 2 was 1452 and 826, respectively, while the number of 2C and OT1 cells that were treated with 0.5 μM 21 was 3003 and 903, respectively. This is depicted as a bar-graph in FIG. 9C.
row,Structure (SMILES),number of OT2 (resting) cells
1,"Cc1ccc(Nc2nc(-c3cc(O)c(O)c(O)c3)nc3ccccc23)cc1 [Compound 21, 5-(4-(p-tolylamino)quinazolin-2-yl)benzene-1,2,3-triol]",903

# Test system: 2C (stimulated) cells
# Test: MLR with resting control cells, stimulated 2C cells
# Format: cell-based, mouse
# Details: 0.5 μM, 72 h MLR with IL-7; no inhibitor 3805
# Description: as §4, §5, §6
# (§8) Irradiated Balb splenocytes were incubated for 72 h with 2C, and OT1 splenocytes in the presence of IL-7 W/O inhibitor.
# (§9) The CD4+ and CD8+ were stimulated to proliferate, whereas in the absence of specific stimuli the OT1 and OT2 cell populations were resting, and theses cells were kept alive by the administration of IL-7. […] The number of 2C and OT1 cells that were treated with 0.5 μM 2 was 286 and 1148, respectively, while the number of 2C and OT1 cells that were treated with 0.5 μM 21 (control) was 4767 and 2468, respectively. This is depicted as a bar-graph in FIG. 8C.
row,Structure (SMILES),number of 2C (stimulated) cells
1,"Cc1ccc(Nc2nc(-c3cc(O)c(O)c(O)c3)nc3ccccc23)cc1 [Compound 21, 5-(4-(p-tolylamino)quinazolin-2-yl)benzene-1,2,3-triol]",4767

# Test system: CD8+ (2C) and CD4+ (TEA) T cells
# Test: MLR, double-positive CD8+1B2+ (2C) or CD4+/Va2+ (TEA) effector cells by FACS
# Format: cell-based, mouse
# Details: 72 h MLR
# Description: Mice used included male and female 6- to 12-week-old CB6/F1 mice, obtained from the Roscoe B. Jackson Memorial Laboratory (The Jackson Laboratory, Bar Harbor, Me., http://www.jax.org). A breeding pair of transgenic (Tg) H-2b mice expressing the T-cell antigen receptor (TCR) 1B2 from the CD8+ clone 2C with specificity for H-2Ld was kindly provided by Janko Nikolic-Zugic (Memorial Sloan-Kettering Cancer Center, New York, http://www.mskcc.org). A breeding pair of Tg H-2b mice expressing the TCR from the CD4+ clone known as TEA with specificity for I-Ead allopeptide, cross-presented by host APC and bound to I-Ab and was kindly provided by Alexander Y. Rudensky (University of Washington, Seattle). I-Ead allopeptide corresponds to the positions 52 to 68 from the alpha-chain of I-E class II molecules and is expressed in all APCs from H-2b/I-E+ strains (CB6F1-hybrid of C57BL/6 and Balb/c). C57BL/6 mice are H-2b but I-E−, whereas BALB/c are H-2d and I-E+, and therefore their F1 hybrids are H-2b/1-E+ and able to directly present antigen.
# Responder 2C splenocytes were harvested, and the cell suspensions were treated with Tris-buffered ammonium chloride to remove RBC. […] On day 3, the MLR cultures were harvested, and analyzed by FACS for CD4 or CD8 levels.
# FACS analysis was performed using a modified FACScan (BD Biosciences, Mountain View, Calif.). Fluorescence data were collected during one minute. […]
row,Structure (SMILES),percentage of double-positive effector cells
1,"Cc1ccc(Nc2nc(-c3cc(O)c(O)c(O)c3)nc3ccccc23)cc1 [Compound 21, 5-(4-(p-tolylamino)quinazolin-2-yl)benzene-1,2,3-triol]",no reduction was observed

# Test system: OT1 (resting) cells
# Test: MLR with resting control cells, resting OT1 cells
# Format: cell-based, mouse
# Details: 0.5 μM, 72 h MLR with IL-7; no inhibitor 2459
# Description: as §4, §5, §6, §8, §9
row,Structure (SMILES),number of OT1 (resting) cells
1,"Cc1ccc(Nc2nc(-c3cc(O)c(O)c(O)c3)nc3ccccc23)cc1 [Compound 21, 5-(4-(p-tolylamino)quinazolin-2-yl)benzene-1,2,3-triol]",2468

# Test system: IL-2 secretion by 2C splenocytes stimulated by irradiated BALB/c splenocytes
# Test: IL-2 levels in MLR supernatants
# Format: cell-based, mouse
# Details: 24, 48 and 72 h MLR; compound 2 up to 1 μM
# Procedure: In the mixed lymphocyte reaction, stimulator cells cause responder cells to proliferate, owing to alloreactivity [Reich-Zeliger et al., 2004]. Splenocytes from 2c mice were stimulated by irradiated splenocytes from BALB/c mice in the presence of the evaluated compound at the concentrations specified. Cultures were incubated for 72 hours in 96-well plates.
# Jurkat or PBMC cells were treated for 12 h with 1 μM, 0.5 μM or no inhibitor. Cells (1×10^6) were plated in 24-well plates (Nunc) and stimulated by C305 (dilution 1:500), anti-CD28 (1:100), PMA (50 ng/ml) or ionomycin (1 μM) for 12 h. Alternately, cells were stimulated for 24, 48 and 72 h in MLR. After stimulation cells were centrifuged at 130×g for 5 minutes at room temperature.
# Supernatants were collected and IL-2 was assayed using the IL-2 ELISA kit (BioSource International USA, KH0022) according to the manufacturer's instructions. Absorbance was read at 450 nm in an ELISA plate reader (ELx800 BIO-TEK Instruments Inc.).
# In vivo, T cells are stimulated by neighboring cells. In order to test the effect of 2 on cell-stimulated IL-2 secretion, the supernatants of splenocytes after 24, 48 and 72 h MLR were collected and analyzed for their IL-2 levels (FIG. 5C). […] At higher concentrations, no viable cells remained.
row,Structure (SMILES),IL-2 levels in MLR supernatants
1,"Cc1ccc(Nc2nc(-c3cc(O)c(O)c(O)c3)nc3ccccc23)cc1 [Compound 21, 5-(4-(p-tolylamino)quinazolin-2-yl)benzene-1,2,3-triol]",decreased after 72 h

# Test system: TEA (stimulated) cells
# Test: MLR with resting control cells, stimulated TEA cells
# Format: cell-based, mouse
# Details: 0.5 μM, 72 h MLR with IL-7; no inhibitor 3850
# Description: as §4, §5, §6, §7
row,Structure (SMILES),number of TEA (stimulated) cells
1,"Cc1ccc(Nc2nc(-c3cc(O)c(O)c(O)c3)nc3ccccc23)cc1 [Compound 21, 5-(4-(p-tolylamino)quinazolin-2-yl)benzene-1,2,3-triol]",3003

# Test system: Jurkat cells
# Test: Jurkat cell proliferation, BrdU incorporation
# Format: cell-based, human
# Details: Homo sapiens, Jurkat, BrdU uptake; nM ± SD; read-out: IC50 Jurkat cells proliferation inhibition
# Procedure: as §1, §2, §3
row,Structure (SMILES),IC50 [nM]
1,"COc1cc(-c2nc(Nc3ccc(OC(F)(F)F)cc3)c3ccccc3n2)cc(OC)c1OC [Compound 7, N-(4-(trifluoromethoxy)phenyl)-2-(3,4,5-trimethoxyphenyl) quinazolin-4-amine]",180 ± 0.11
2,"COc1cc(-c2nc(Nc3ccc4[nH]ncc4c3)c3ccccc3n2)cc(OC)c1OC [Compound 16, N-(1H-indazol-5-yl)-2-(3,4,5-trimethoxyphenyl)quinazolin-4-amine]",700 ± 0.35
3,"COc1cc(-c2nc(NCc3ccc(N)cc3)c3ccccc3n2)cc(OC)c1OC [Compound 11, N-(4-aminobenzyl)-2-(3,4,5-trimethoxyphenyl)quinazolin-4-amine]",480 ± 0.18

# Other lines, results leading:
row,IC50 [nM],Structure (SMILES)
1,850 ± 0.21,"Cc1ccc(Nc2nc(-c3cc(O)c(O)c(O)c3)nc3ccccc23)cc1 [Compound 21, 5-(4-(p-tolylamino)quinazolin-2-yl)benzene-1,2,3-triol]"
2,5500 ± 3.5,"Oc1cc(-c2nc(Nc3ccccc3)c3ccccc3n2)cc(O)c1O [Compound 20, 5-(4-(phenylamino)quinazolin-2-yl)benzene-1,2,3-triol]"

# Same assay, conditions: relative to compound 2
row,fold increase in the IC50 of Jurkat cell proliferation compared with compound 2 [fold],Structure (SMILES)
1,6,"COc1cc(-c2nc(Nc3ccc(OC(F)(F)F)cc3)c3ccccc3n2)cc(OC)c1OC [Compound 7, N-(4-(trifluoromethoxy)phenyl)-2-(3,4,5-trimethoxyphenyl) quinazolin-4-amine]"
